Broadly, the pIC50 is −log10 of the IC50, conventionally taken in molar units. A lower pIC50 goes with a large IC50.

pIC50: −log10 of the molar value.

This experiment deals with T1, human α-thrombin (Homo sapiens, UniProt P00734).
T1 construct: human α-thrombin
The experiment in a line: Inhibition of human α-thrombin in a chromogenic assay (N-p-tosyl-gly-pro-lys p-nitroanilide substrate). In kind it is biochemical. Conditions: human α-thrombin 1 nM, substrate 100 μM, pH 7.4, room temperature, 405 nm; preincubation (zero or 15 mins) not given. As to the method: All dilutions were made in a buffer consisting of: 50 mM HEPES, 150 mM NaCl, 5 mM CaCl2, 0.1% PEG and at pH 7.4. Briefly, the substrate (final conc. of 100 μM) was added to thrombin (final conc. of 1 nM) and the reaction monitored for 10 mins at 405 nm using a Biotek EL340 plate reader; the assay was performed at room temperature. To obtain IC50 s the data were analyzed using Kineticalc® with a 4-parameter curve fitting procedure to obtain the IC50 value.
The compounds of the present invention are thrombin inhibitors. The results below illustrate the thrombin activity of a range of compounds of formula (I) using the previously described biological method: […]
For the compound `NC(=O)CCCCCN(Cc1ccco1)C(=O)c1cc(Cl)cc(OCCNc2ccncc2)c1` [Example 138, N-(5-Carbamoyl-pentyl)-3-chloro-N-furan-2-ylmethyl-5-[2-(pyridin-4-ylamino)-ethoxy]-benzamide], the pIC50 was 7.04.

Consider `O=C(c1cc(Cl)cc(OCCNc2ccncc2)c1)N(CCCc1nnn[nH]1)c1ccccc1F` [Example 40, 3-Chloro-N-(2-fluoro-phenyl)-5-[2-(pyridin-4-ylamino)-ethoxy]-N-[3-(1H-tetrazol-5-yl)-propyl]-benzamide], for which the pIC50 was 8.05.

`COCCN(C(=O)c1cc(Cl)cc(OCCNc2ccncc2)c1)C(C)C` [Example 99, 3-Chloro-N-isopropyl-N-(2-methoxy-ethyl)-5-[2-(pyridin-4-ylamino)-ethoxy]-benzamide] had a negative-log IC50 (pIC50) of 7.40.

Compound `O=C(CCCN(C(=O)c1cc(Cl)cc(OCCNc2ccncc2)c1)C1CCCC1)N1CCCC1` [Example 20, 3-Chloro-N-cyclopentyl-N-(4-oxo-4-pyrrolidin-1-yl-butyl)-5-[2-(pyridin-4-ylamino)-ethoxy]-benzamide] gave a negative logarithm of the IC50 (pIC50) of 8.05.

Turning to `CCOC(=O)CCCN(C(=O)c1cc(Cl)cc(OCCNc2ccncc2)c1)C1CCCC1` [Example 17, 4-({3-Chloro-5-[2-(pyridin-4-ylamino)-ethoxy]-benzoyl}-cyclopentyl-amino)-butyric acid ethyl ester], the pIC50 was 7.85.

Regarding `O=C(c1cc(Cl)cc(OCCNc2ccncc2)c1)N(CCOCC(O)CO)c1ccccc1` (stereo not drawn) [Example 41, 3-Chloro-N-[2-(2,3-dihydroxy-propoxy)-ethyl]-N-phenyl-5-[2-(pyridin-4-ylamino)-ethoxy]-benzamide], the pIC50 is 7.55.

Consider `CC(C)N(CCC(N)=O)C(=O)c1cc(Cl)cc(OCCNc2ccncc2)c1` [Example 58, N-(2-Carbamoyl-ethyl)-3-chloro-N-isopropyl-5-[2-(pyridin-4-ylamino)-ethoxy]-benzamide], for which the pIC50 was 6.97.

With `CCCN(C(=O)c1cc(Cl)cc(OCCNc2ccncc2)c1)c1cc(F)cc(F)c1` [Example 29, 3-Chloro-N-(3,5-difluoro-phenyl)-N-propyl-5-[2-(pyridin-4-ylamino)-ethoxy]-benzamide], the negative logarithm of the IC50 (pIC50) was 7.21.

Consider `CC(C)(C)NC(=O)CCN(C(=O)c1cc(Cl)cc(OCCNc2ccncc2)c1)c1ccccc1` [Example 47, N-(2-tert-Butylcarbamoyl-ethyl)-3-chloro-N-phenyl-5-[2-(pyridin-4-ylamino)ethoxy]-benzamide], for which the pIC50 is 7.21.

Regarding `CC(C)N(CCc1noc(O)n1)C(=O)c1cc(Cl)cc(OCCNc2ccncc2)c1` [Example 109], the pIC50 is 6.85.

Turning to `O=C(c1cc(Cl)cc(OCCNc2ccncc2)c1)N(CCCCn1cncn1)C1CCCC1` [Example 92, 3-Chloro-N-cyclopentyl-5-[2-(pyridin-4-ylamino)-ethoxy]-N-(4-[1,2,4]triazol-1-yl-butyl)-benzamide], the pIC50 is 7.82.

Compound `O=C(c1cc(Cl)cc(OCCNc2ccncc2)c1)N(CCn1cncn1)C1CCCC1` [Example 91, 3-Chloro-N-cyclopentyl-5-[2-(pyridin-4-ylamino)-ethoxy]-N-(2-[1,2,4]triazol-1-yl-ethyl)-benzamide] gave a pIC50 of 7.47.

`O=C(O)CCCCCN(CC1CCCCC1)C(=O)c1cc(Cl)cc(OCCNc2ccncc2)c1` [Example 124, 6-({3-Chloro-5-[2-(pyridin-4-ylamino)-ethoxy]-benzoyl}-cyclohexylmethyl-amino)-hexanoic acid]: the pIC50 was 7.55.

The compound `CC(C)N(CCCNS(C)(=O)=O)C(=O)c1cc(Cl)cc(OCCNc2ccncc2)c1` [Example 72, 3-Chloro-N-isopropyl-N-(3-methanesulfonylamino-propyl)-5-[2-(pyridin-4-ylamino)-ethoxy]-benzamide] had a pIC50 of 7.20.

With `O=C(CCN(C(=O)c1cc(Cl)cc(OCCNc2ccncc2)c1)c1ccccc1)N1CCSCC1` [Example 49, 3-Chloro-N-(3-oxo-3-thiomorpholin-4-yl-propyl)-N-phenyl-5-[2-(pyridin-4-ylamino)-ethoxy]-benzamide], the pIC50 was 7.42.

As for `O=C(CCCN(C(=O)c1cc(Cl)cc(OCCNc2ccncc2)c1)c1ccccc1F)N1CCCC1` [Example 37, 3-Chloro-N-(2-fluoro-phenyl)-N-(4-oxo-4-pyrrolidin-1-yl-butyl)-5-[2-(pyridin-4-ylamino)-ethoxy]-benzamide], the pIC50 is 7.77.

`O=C(O)CCCN(C(=O)c1cc(Cl)cc(OCCNc2ccncc2)c1)C1CCC1` [Example 128, 4-({3-Chloro-5-[2-(pyridin-4-ylamino)-ethoxy]-benzol}-cyclobutyl-amino)-butyric acid] gave a pIC50 of 7.39.

Take `CC(C)CN(Cc1ccc(C(=O)O)cc1)C(=O)c1cc(Cl)cc(OCCNc2ccncc2)c1` [Example 118, 4-[({3-Chloro-5-[2-(pyridin-4-ylamino)-ethoxy]-benzoyl}-isobutyl-amino)-methyl]-benzoic acid]: the pIC50 was 8.00.

`O=C(c1cc(Cl)cc(OCCNc2ccncc2)c1)N(CCCO)C1CCCC1` [Example 9, 3-Chloro-N-cyclopentyl-N-(3-hydroxy-propyl)-5-[2-(pyridin-4-ylamino)-ethoxy]-benzamide] showed a pIC50 of 8.15.

In turn, `O=C(c1cc(Cl)cc(OCCNc2ccncc2)c1)N(CCCn1cncn1)c1ccc(F)cc1` [Example 90, 3-Chloro-N-(4-fluoro-phenyl)-5-[2-(pyridin-4-ylamino)-ethoxy]-N-(3-[1,2,4]triazol-1-yl-propyl)-benzamide] had a pIC50 of 7.66.

`C=CCN(C(=O)c1cc(Cl)cc(OCCNc2ccncc2)c1)C1CCCC1` [Example 6, N-Allyl-3-chloro-N-cyclopentyl-5-[2-(pyridin-4-ylamino)-ethoxy]-benzamide] had a pIC50 of 8.30.

`NC(=O)CCN(CC1CC1)C(=O)c1cc(Cl)cc(OCCNc2ccncc2)c1` [Example 55, N-(2-Carbamoyl-ethyl)-3-chloro-N-cyclopropylmethyl-5-[2-(pyridin-4-ylamino)-ethoxy]-benzamide] showed a negative-log IC50 (pIC50) of 7.30.

`O=C(c1cc(Cl)cc(OCCNc2ccncc2)c1)N(CCCN1CCOCC1)C1CCCC1` [Example 13, 3-Chloro-N-cyclopentyl-N-(3-morpholin-4-yl-propyl)-5-[2-(pyridin-4-ylamino)-ethoxy]-benzamide] showed a pIC50 of 7.82.

The compound `Cc1cc(OCCNc2ccncc2)cc(C(=O)N(C)C2CCCCC2)c1` [Example 1, N-Cyclohexyl-3, N-dimethyl-5-[2-(pyridin-4-ylamino)-ethoxy]-benzamide] had a pIC50 of 8.10.

The record behind these values is US6326386A, “Benzamide derivatives as thrombin inhibitors” (Glaxo Group Limited, priority 1995, dated 2001).
